Assay results reported in US11964971B2, “Methods and compositions for modulating splicing” (Skyhawk Therapeutics, Inc., priority 2019, dated 2024).

Legend:
[1] = test system: MDR1 (P-gp); test: MDCK-MDR1 permeability assay, blood-brain-barrier penetration potential; details: dog, MDCK-MDR1, pH 7.4, MDCK-MDR1 Efflux Ratio
Procedure: (§1) Experimental Procedure: MDR1-MDCK cell monolayers are grown to confluence on collagen-coated, microporous membranes in 12-well assay plates. The permeability assay buffer is Hanks' balanced salt solution containing 10 mM HEPES and 15 mM glucose at a pH of 7.4. The buffer in the receiver chamber also contained 1% bovine serum albumin. The dosing solution concentration is 5 μM of test article in the assay buffer. Cell monolayers are dosed on the apical side (A-to-B) or basolateral side (B-to-A) and incubated at 37° C. with 5% CO2 in a humidified incubator. Samples are taken from the donor and receiver chambers at 120 minutes. Each determination is performed in duplicate. The flux of lucifer yellow is also measured post-experimentally for each monolayer to ensure no damage was inflicted to the cell monolayers during the flux period. All samples are assayed by LC-MS/MS using electrospray ionization.
(§2) Analytical Method: Liquid Chromatography • Column: Waters ACQUITY UPLC BEH Phenyl 30×2.1 mm, 1.7 μm • M.P. Buffer: 25 mM ammonium formate buffer, pH 3.5 • Aqueous Reservoir (A): 90% water, 10% buffer • Organic Reservoir (B): 90% acetonitrile, 10% buffer • Flow Rate: 0.7 mL/minute • Gradient Program:
(§3) • Total Run Time: 1.00 minute • Autosampler: 2 μL injection volume • Wash1: water/methanol/2-propanol:1/1/1; with 0.2% formic acid • Wash2: 0.1% formic acid in water • Brain Penetration • Potential Classification: A-B Papp≥3.0 and Efflux Ratio<3.0: High • A-B Papp≥3.0 and 10>Efflux Ratio≥3.0: Moderate • A-B Papp≥3.0 and Efflux Ratio≥10: Low • A-B Papp<3.0: Low

[2] = test system: MDR1; test: in vitro; details: dog; for Papp A→B at 120 min, 5 μM: MDCK-MDR1, pH 7.4, MDCK-MDR1: Papp A-B (10^−6, cm/s); for Papp B→A at 120 min, 5 μM: MDCK-MDR1, pH 7.4, MDCK-MDR1: Papp B-A (10^−6, cm/s)
Procedure: as §1, §2, §3

[3] = test system: MDR1-MDCK cell monolayers; details: dog, MDCK-MDR1, 120 min, 5 μM, pH 7.4
Procedure: as §1, §2, §3

[4] = test system: SMN protein; test: SMN protein assay (MSD) in SMA patient fibroblasts (GM03813); type: cell-based, human
Procedure: Compounds are tested on spinal muscular atrophy (SMA) patient fibroblasts (GM03813, Coriell) at doses ranging from 2.5 μM to 0.6 nM. 7000 cells/well are seeded in 96-well plates. Compounds are incubated for 48 hours and the cells were lysed with 100 μL of lysis buffer. 20 μL of lysate is used for SMN protein measurement by Mesoscale Discovery (MSD) assay developed by PharmOptima (Michigan). A standard curve prepared with SMN protein ranging from […] is used in each MSD plate to calculate the absolute SMN protein amount in each sample.

Row | SMILES | efflux ratio at 120 min, 5 μM [1] | Papp A→B at 120 min, 5 μM [2] [×10⁻⁶ cm/s] | Papp B→A at 120 min, 5 μM [2] [×10⁻⁶ cm/s] | MDCK-MDR1: % Recov A-B (%) [3] [%] | MDCK-MDR1: % Recov B-A (%) [3] [%] | EC50 [4] [nM]
1 | Oc1cc(-c2cn[nH]c2)c(F)cc1-c1cnc(N(C2CC2)[C@@H]2CC3CC[C@H](N3)[C@@H]2F)cn1 (single isomer, unassigned) [Compound 41E1] | 8 | 6.63 | 39.2 | 54 | 75 | 501 to 10000
2 | Oc1cc(-c2cn[nH]c2)c(F)cc1-c1cnc(N(C2CC2)[C@H]2C[C@@H]3CCC(N3)[C@H]2F)cn1 (single isomer, unassigned) [Compound 41E2] | 6 | 6.09 | 34.4 | 54 | 72 | 101 to 500
3 | CN(c1cnc(-c2ccc(-c3cnn(CF)c3)cc2O)cn1)[C@H]1C[C@@H]2CCC(N2)[C@H]1F (single isomer, unassigned) [Compound 42E2] | 5 | 5.95 | 31.8 | 44 | 60 | 501 to 10000
4 | COc1cc(-c2ccc(-c3cnc(N(C)[C@@H]4CC5CC[C@H](N5)[C@@H]4F)cn3)c(O)c2)ccn1 (single isomer, unassigned) [Compound 43E1] | 1 | 1.06 | 1.31 | 18 | 50 | 101 to 500
5 | COc1cc(-c2ccc(-c3cnc(N(C)[C@H]4C[C@@H]5CCC(N5)[C@H]4F)cn3)c(O)c2)ccn1 (single isomer, unassigned) [Compound 43E2] | 1 | 0.98 | 1.35 | 12 | 49 | 16 to 50
6 | COc1cc(-c2ccc(-c3cnc(N(C)[C@@H]4CC5CC[C@H](N5)[C@@H]4F)cn3)c(O)c2)cc(F)n1 (single isomer, unassigned) [Compound 44E1] | 2 | 2.33 | 5.55 | 14 | 41 | 501 to 10000
7 | COc1cc(-c2ccc(-c3cnc(N(C)[C@H]4C[C@@H]5CCC(N5)[C@H]4F)cn3)c(O)c2)cc(F)n1 (single isomer, unassigned) [Compound 44E2] | 3 | 3.33 | 9.1 | 13 | 52 | 101 to 500
8 | CN(c1cnc(-c2ccc(-c3ccn(C)c(=O)c3)cc2O)cn1)[C@H]1C[C@@H]2CCC(N2)[C@H]1F (single isomer, unassigned) [Compound 45E2] | 35 | 1.9 | 65.6 | 87 | 87 | 51 to 100
9 | CN(c1cnc(-c2ccc(-c3ccn(CF)c(=O)c3)cc2O)cn1)[C@@H]1CC2CC[C@H](N2)[C@@H]1F (single isomer, unassigned) [Compound 46E1] | 22 | 1.69 | 37.9 | 74 | 78 | 501 to 10000
10 | CN(c1cnc(-c2ccc(-c3ccn(CF)c(=O)c3)cc2O)cn1)[C@H]1C[C@@H]2CCC(N2)[C@H]1F (single isomer, unassigned) [Compound 46E2] | 22 | 2 | 43 | 77 | 80 | 101 to 500
11 | CN(c1cnc(-c2ccc(-c3cc(=O)n(C)cn3)cc2O)cn1)[C@@H]1CC2CC[C@H](N2)[C@@H]1F (single isomer, unassigned) [Compound 47E1] | 23 | 2.32 | 52.8 | 74 | 78 | 101 to 500
12 | CN(c1cnc(-c2ccc(-c3cc(=O)n(C)cn3)cc2O)cn1)[C@H]1C[C@@H]2CCC(N2)[C@H]1F (single isomer, unassigned) [Compound 47E2] | 15 | 3.35 | 51.1 | 84 | 90 | 51 to 100
13 | COc1cc(-c2ccc(-c3cnc(N(C)[C@H]4C[C@@H]5CCC(N5)[C@H]4F)cn3)c(O)c2)ncn1 (single isomer, unassigned) [Compound 48E2] | 3 | 5.38 | 13.8 | 28 | 57 | 51 to 100
14 | Cn1cc(-c2ccc(-c3cnc(N(C4CC4)[C@@H]4CC5CC[C@H](N5)[C@@H]4F)cn3)c(O)c2)cn1 (single isomer, unassigned) [Compound 49E1] | 6 | 4.73 | 26.5 | 47 | 65 | 501 to 10000
15 | Cn1cnc(-c2cc(O)c(-c3cnc(N(C4CC4)[C@@H]4CC5CC[C@H](N5)[C@@H]4F)cn3)cc2F)cc1=O (single isomer, unassigned) [Compound 50E1] | 29 | 1.59 | 46.4 | 82 | 92 | 501 to 10000
16 | Cn1cnc(-c2cc(O)c(-c3cnc(N(C4CC4)[C@H]4C[C@@H]5CCC(N5)[C@H]4F)cn3)cc2F)cc1=O (single isomer, unassigned) [Compound 50E2] | 38 | 1.29 | 49.3 | 81 | 90 | 501 to 10000
17 | COc1cc(-c2ccc(-c3cnc(N(C4CC4)[C@@H]4CC5CC[C@H](N5)[C@@H]4F)cn3)c(O)c2)ccn1 (single isomer, unassigned) [Compound 51E1] | 2 | 1.5 | 3.19 | 8 | 34 | 501 to 10000
18 | COc1cc(-c2ccc(-c3cnc(N(C4CC4)[C@H]4C[C@@H]5CCC(N5)[C@H]4F)cn3)c(O)c2)ccn1 (single isomer, unassigned) [Compound 51E2] | 2 | 1.27 | 2.99 | 11 | 34 | 501 to 10000
19 | COc1cc(-c2ccc(-c3cnc(N(C4CC4)[C@@H]4CC5CC[C@H](N5)[C@@H]4F)cn3)c(O)c2)cc(F)n1 (single isomer, unassigned) [Compound 52E1] | 1 | 0.92 | 0.71 | 12 | 76 | 501 to 10000
20 | COc1cc(-c2ccc(-c3cnc(N(C4CC4)[C@H]4C[C@@H]5CCC(N5)[C@H]4F)cn3)c(O)c2)cc(F)n1 (single isomer, unassigned) [Compound 52E2] | 2 | 1.63 | 3.32 | 12 | 49 | 501 to 10000
21 | Cn1ccc(-c2ccc(-c3cnc(N(C4CC4)[C@@H]4CC5CC[C@H](N5)[C@@H]4F)cn3)c(O)c2)cc1=O (single isomer, unassigned) [Compound 53E1] | 34 | 1.51 | 50.9 | 71 | 71 | 501 to 10000
22 | Cn1ccc(-c2ccc(-c3cnc(N(C4CC4)[C@H]4C[C@@H]5CCC(N5)[C@H]4F)cn3)c(O)c2)cc1=O (single isomer, unassigned) [Compound 53E2] | 29 | 1.61 | 46.1 | 71 | 69 | 501 to 10000
23 | O=c1cc(-c2ccc(-c3cnc(N(C4CC4)[C@@H]4CC5CC[C@H](N5)[C@@H]4F)cn3)c(O)c2)ccn1CF (single isomer, unassigned) [Compound 54E1] | 23 | 1.92 | 43.4 | 64 | 70 | 501 to 10000
24 | O=c1cc(-c2ccc(-c3cnc(N(C4CC4)[C@H]4C[C@@H]5CCC(N5)[C@H]4F)cn3)c(O)c2)ccn1CF (single isomer, unassigned) [Compound 54E2] | 24 | 1.81 | 44 | 63 | 67 | 501 to 10000
25 | Cn1cnc(-c2ccc(-c3cnc(N(C4CC4)[C@@H]4CC5CC[C@H](N5)[C@@H]4F)cn3)c(O)c2)cc1=O (single isomer, unassigned) [Compound 55E1] | 26 | 2.46 | 64.4 | 81 | 85 | 501 to 10000
